From patent US20200239530A1, “COMPOUNDS AND METHODS OF MODULATING PROTEIN DEGRADATION” (Vividion Therapeutics, Inc., priority 2017, published 2020)

How the values were obtained:
Test in all cases: Cysteine liganding, probe competition
Format in all cases: binding
[1] = target: T1, GAMT Guanidinoacetate N-methyltransferase (Homo sapiens, UniProt Q14353)
T1 construct: 200 μL of lysate containing 5 mg/ml proteome was treated with 2 μL of 100× compound stock; endogenous in cells
In short: (§1)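 Lysates from probe-sonicated cells in PBS (5 mg/ml proteome) were exposed to compound for 1 hr at 25° C, then labelled with desthiobiotin iodoacetamide probe (10 mM stock) for 1 hr at 25° C. Probe-tagged peptides were streptavidin-enriched after trypsin digestion.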

[2] = target: T2, ACAA2 3-ketoacyl-CoA thiolase, mitochondrial (Homo sapiens, UniProt P42765)
T2 construct: Cells were resuspended in cold PBS on ice and sonicated with a probe sonicator to achieve lysis; endogenous in cells
T2 sequence (P42765 1-397): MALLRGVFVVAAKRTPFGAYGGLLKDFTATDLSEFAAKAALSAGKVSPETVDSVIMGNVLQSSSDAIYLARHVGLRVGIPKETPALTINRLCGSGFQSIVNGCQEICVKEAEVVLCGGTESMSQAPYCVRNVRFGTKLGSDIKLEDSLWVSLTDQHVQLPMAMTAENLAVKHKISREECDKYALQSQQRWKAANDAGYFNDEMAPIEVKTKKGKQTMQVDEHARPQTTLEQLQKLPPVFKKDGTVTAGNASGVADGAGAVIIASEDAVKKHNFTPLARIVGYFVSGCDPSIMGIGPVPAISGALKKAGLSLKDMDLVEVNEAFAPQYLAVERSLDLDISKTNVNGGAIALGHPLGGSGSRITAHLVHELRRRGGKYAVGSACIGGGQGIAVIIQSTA
In short: as §1

[3] = target: T3, NAA15 N-alpha-acetyltransferase 15, NatA auxiliary subun (Homo sapiens, UniProt Q9BXJ9)
T3 construct: Cells were resuspended in cold PBS on ice and sonicated with a probe sonicator to achieve lysis; endogenous in cells
T3 sequence (Q9BXJ9 1-866): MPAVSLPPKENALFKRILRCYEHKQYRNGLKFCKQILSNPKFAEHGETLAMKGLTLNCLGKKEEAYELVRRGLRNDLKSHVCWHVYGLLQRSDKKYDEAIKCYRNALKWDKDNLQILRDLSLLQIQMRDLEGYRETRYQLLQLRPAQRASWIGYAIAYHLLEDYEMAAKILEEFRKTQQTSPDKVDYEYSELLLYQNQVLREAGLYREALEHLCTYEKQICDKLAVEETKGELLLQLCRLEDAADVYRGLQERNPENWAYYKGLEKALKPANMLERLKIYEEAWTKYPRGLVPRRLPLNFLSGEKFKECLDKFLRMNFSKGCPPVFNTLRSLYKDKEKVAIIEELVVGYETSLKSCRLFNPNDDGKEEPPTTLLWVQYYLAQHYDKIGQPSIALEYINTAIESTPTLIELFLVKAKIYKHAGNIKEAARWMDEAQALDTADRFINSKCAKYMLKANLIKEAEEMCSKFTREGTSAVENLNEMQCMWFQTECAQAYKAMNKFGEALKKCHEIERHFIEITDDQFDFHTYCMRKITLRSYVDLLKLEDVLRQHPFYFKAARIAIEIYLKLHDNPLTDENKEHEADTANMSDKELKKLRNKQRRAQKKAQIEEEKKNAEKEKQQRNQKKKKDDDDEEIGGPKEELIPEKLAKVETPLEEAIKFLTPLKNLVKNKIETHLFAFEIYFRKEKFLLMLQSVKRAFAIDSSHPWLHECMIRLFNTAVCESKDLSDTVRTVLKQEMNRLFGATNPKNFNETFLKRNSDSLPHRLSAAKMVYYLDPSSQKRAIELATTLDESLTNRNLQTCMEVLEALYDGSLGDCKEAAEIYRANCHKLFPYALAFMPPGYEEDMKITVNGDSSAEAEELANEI
In short: as §1

[4] = target: T4, PRMT5 Protein arginine N-methyltransferase 5 (Homo sapiens, UniProt O14744)
T4 construct: Cells were resuspended in cold PBS on ice and sonicated with a probe sonicator to achieve lysis; endogenous in cells
T4 sequence (O14744 whole entry): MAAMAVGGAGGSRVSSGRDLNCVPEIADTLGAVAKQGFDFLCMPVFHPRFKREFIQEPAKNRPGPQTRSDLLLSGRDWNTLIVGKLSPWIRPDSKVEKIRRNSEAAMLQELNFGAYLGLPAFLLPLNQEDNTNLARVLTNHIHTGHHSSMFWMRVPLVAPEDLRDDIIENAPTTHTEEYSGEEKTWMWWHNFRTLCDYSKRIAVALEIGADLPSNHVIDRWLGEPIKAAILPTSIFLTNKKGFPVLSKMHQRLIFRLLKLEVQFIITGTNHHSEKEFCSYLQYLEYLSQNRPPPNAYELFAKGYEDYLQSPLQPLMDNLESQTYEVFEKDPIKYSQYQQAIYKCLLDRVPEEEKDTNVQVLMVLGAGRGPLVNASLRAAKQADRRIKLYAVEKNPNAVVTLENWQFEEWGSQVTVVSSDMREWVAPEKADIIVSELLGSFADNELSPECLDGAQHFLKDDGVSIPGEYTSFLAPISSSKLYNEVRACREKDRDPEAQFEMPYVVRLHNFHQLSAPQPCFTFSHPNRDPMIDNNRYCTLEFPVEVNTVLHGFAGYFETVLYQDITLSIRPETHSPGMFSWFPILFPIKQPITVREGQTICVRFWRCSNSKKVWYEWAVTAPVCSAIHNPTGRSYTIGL
T4 sequence (Q9BQA1 whole entry partner): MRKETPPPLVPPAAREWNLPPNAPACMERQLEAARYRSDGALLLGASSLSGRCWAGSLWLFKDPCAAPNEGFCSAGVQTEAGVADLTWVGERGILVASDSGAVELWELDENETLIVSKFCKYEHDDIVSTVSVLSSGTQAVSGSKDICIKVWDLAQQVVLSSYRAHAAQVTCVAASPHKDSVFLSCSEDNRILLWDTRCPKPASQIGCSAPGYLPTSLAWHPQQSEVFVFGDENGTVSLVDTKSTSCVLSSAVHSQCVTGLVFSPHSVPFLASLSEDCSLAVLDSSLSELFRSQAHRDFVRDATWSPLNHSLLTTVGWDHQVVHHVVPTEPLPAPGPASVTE
In short: as §1

| SMILES | Liganded ([1]; GAMT Res# 91, uniprot Q14353) | Liganded ([2]; ACAA2 Res# 382, uniprot P42765) | Liganded ([3]; NAA15 Res# 817, uniprot Q9BXJ9) | Liganded ([4]; PRMT5 Res# 278, uniprot O14744) | 100 Max ([1]; uniprot Q14353) | 100 ave ([1]; uniprot Q14353) | 500 ave ([1]; uniprot Q14353) | 500 Max ([1]; uniprot Q14353, in % (unit assumed)) | 100 Max ([2]; uniprot P42765) | 100 ave ([2]; uniprot P42765) | 500 Max ([2]; uniprot P42765) | 500 ave ([2]; uniprot P42765) | 100 Max ([3]; uniprot Q9BXJ9) | 100 ave ([3]; uniprot Q9BXJ9) | 500 Max ([3]; uniprot Q9BXJ9) | 500 ave ([3]; uniprot Q9BXJ9) | 100 ave ([4]; uniprot O14744) | 500 Max ([4]; uniprot O14744) | 500 ave ([4]; uniprot O14744) | 100 Max ([4]; uniprot O14744, in % (unit assumed)) |
| --- | --- | --- | --- | --- | --- | --- | --- | --- | --- | --- | --- | --- | --- | --- | --- | --- | --- | --- | --- | --- |
| COc1ccc2c(c1)CCCN2C(=O)CCl [KB02] | YES | YES | YES | YES |  |  |  |  |  |  |  |  |  |  |  |  |  |  |  |  |
| O=C(CCl)Nc1cc(C(F)(F)F)cc(C(F)(F)F)c1 [KBO3] |  |  |  |  | −9.9 | −25.93 | 6.05 | 16.85 | 3.45 | 3.45 | −0.69 | −0.69 | −21.23 | −31.6767 | 14.66 | 14.66 | 16.62 | 45.47 | 45.47 | 16.62 |
